Data taken from US7524860B2, “Antibacterial agents” (Pfizer Inc., priority 2004, dated 2009).
In brackets after ≈: the same amount, converted by molar mass. Like-named read-outs stand apart in the source and are kept apart here.

What was measured:
[1] = test system: Neisseria gonorrhoeae, GC525 (NG-2888); experiment: in-vitro antibacterial activity, microbroth dilution MIC susceptibility testing; assay type: cell-based; parameters: unit: ug/mL; conditions: microbroth dilution in gonococcal broth, 20-24 hours at 35 C, lowest concentration preventing visible growth
In short: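 Broth microdilution in gonococcal broth, inoculum ~5×10^5 cfu/mL, 20-24 h at 35 C in humidified CO2; compounds from 2 mg/mL DMSO stocks over 64-0.06 and 1-0.001 ug/mL two-fold series. MIC is the lowest concentration preventing visible growth, read visually; duplicates differing one well give the lower value, two wells the middle value.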

[2] = Neisseria gonorrhoeae, read-out: MIC

Molecule | MIC [1, 2] | melting point | MIC [1]
CCNC(=O)Nc1nc2cc(-c3cccnc3)ccn2n1 [Example 1, 1-Ethyl-3-(7-pyridin-3-yl-[1,2,4]triazolo[1,5-a]pyridin-2-yl)-urea] | 32 µg/mL (≈ 113 µM) | 230 to 233 °C | 
CCNC(=O)Nc1nc2cc(-c3ccc(OC)nc3)ccn2n1 [Example 2, 1-Ethyl-3-[7-(6-methoxy-pyridin-3-yl)-[1,2,4]triazolo[1,5-a]pyridin-2-yl]-urea] | > 64 µg/mL | 230 to 233 °C | 
CCNC(=O)Nc1nc2cc(-c3cccnc3)cc(C(=O)OCC)n2n1 [Example 16, 2-(3-ethyl-ureido)-7-pyridin-3-yl-[1,2,4]triazolo[1,5-a]pyridine-5-carboxylic acid ethyl ester] |  | 242 to 245 °C | 
CCNC(=O)Nc1nc2cc(-c3cccnc3)cc(-c3nc(C)no3)n2n1 [Example 18, 1-Ethyl-3-[5-(3-methyl-[1,2,4]oxadiazol-5-yl)-7-pyridin-3-yl-[1,2,4]triazolo[1,5-a]pyridin-2-yl]-urea] |  | 298 to 301 °C | 
CCNC(=O)Nc1nc2cc(-c3cccnc3)cc(C(=O)C3CC3)n2n1 [Example 109, 1-(5-Cyclopropanecarbonyl-7-pyridin-3-yl-[1,2,4]triazolo[1,5-a]pyridine-2-yl)-3-ethyl-urea] | 2 µg/mL (≈ 5.71 µM) |  | 
CCNC(=O)Nc1nc2cc(-c3cccnc3)cc(C(=O)Cc3ccccc3)n2n1 [Example 110, 1-Ethyl-3-(5-phenylacetyl-7-pyridin-3-yl-[1,2,4]triazolo[1,5-a]pyridine-2-yl)-urea] | 4 µg/mL (≈ 9.99 µM) |  | 
CCNC(=O)Nc1nc2cc(-c3cccnc3)cc(C(=O)c3ccccc3)n2n1 [Example 111, 1-(5-Benzoyl-7-pyridin-3-yl-[1,2,4]triazolo[1,5-a]pyridine-2-yl)-3-ethyl-urea] | 8 µg/mL (≈ 20.7 µM) |  | 
CCCC(=NOC)c1cc(-c2cccnc2)cc2nc(NC(=O)NCC)nn12 [Example 112, 1-Ethyl-3-[5-(1-methoxyimino-butyl)-7-pyridin-3-yl-[1,2,4]triazolo[1,5-a]pyridine-2-yl]-urea] | 8 µg/mL (≈ 21 µM) |  | 
CCNC(=O)Nc1cn2c(CN3CCCC3)cc(-c3cccnc3)cc2n1 [Example 113, 1-Ethyl-3-(7-pyridin-3-yl-5-pyrrolidin-1-ylmethyl-imidazo[1,2-a]pyridin-2-yl)-urea] | 64 µg/mL (≈ 176 µM) |  | 
CCOC(=O)c1cc(-c2cnc(N(C)C)nc2)cc2nc(NC(=O)NC(C)C)cn12 [Example 116, 7-(2-Dimethylamino-pyrimidin-5-yl)-2-(3-isopropyl-ureido)-imidazo[1,2-a]pyridine-5-carboxylic acid ethyl ester] |  |  | >64.0 µg/mL
CCNC(=O)Nc1cn2c(C(=O)OCC)cc(-c3ccc(OC)cc3)cc2n1 [Example 118, 2-(3-Ethyl-ureido)-7-(4-methoxy-phenyl)-imidazo[1,2-a]pyridine-5-carboxylic acid ethyl ester] |  |  | >64.0 µg/mL
CCNC(=O)Nc1nc2cc(N3CCCC3)cc(C(=O)N3CCCC3)n2n1 [Example 121, 1-Ethyl-3-[5-(pyrrolidine-1-carbonyl)-7-pyrrolidin-1-yl-[1,2,4]triazolo[1,5-a]pyridin-2-yl]-urea] | 64 µg/mL (≈ 172 µM) |  | 
CCNC(=O)Nc1nc2cc(-c3cccnc3)cc(-c3nc(CC)cs3)n2n1 [Example 122, 1-Ethyl-3-[5-(4-ethyl-thiazol-2-yl)-7-pyridin-3-yl-[1,2,4]triazolo[1,5-a]pyridin-2-yl]-urea] | 0.06 µg/mL (≈ 0.152 µM) |  | 
CCNC(=O)Nc1nc2cc(-c3cccnc3)cc(-c3cnc(CC)s3)n2n1 [Example 123, 1-Ethyl-3-[5-(2-ethyl-thiazol-5-yl)-7-pyridin-3-yl-[1,2,4]triazolo[1,5-a]pyridin-2-yl]-urea] | > 64 µg/mL |  | 
CCNC(=O)Nc1nc2cc(-c3cccnc3)cc(-c3cnc(CC)s3)n2n1 [Example 124, 1-ethyl-3-[5-(2-ethyl-thiazol-5-yl)-7-pyridin-3-yl-[1,2,4]triazolo[1,5-a]pyridin-2-yl]-urea] |  |  | 64.0 µg/mL (≈ 163 µM)
CCNC(=O)Nc1nc2cc(-c3cccnc3)cc(-c3cncs3)n2n1 [Example 125, 1-Ethyl-3-[5-(thiazol-5-yl)-7-pyridin-3-yl-[1,2,4]triazolo[1,5-a]pyridin-2-yl]-urea] | 0.06 µg/mL (≈ 0.164 µM) |  | 
CCNC(=O)Nc1nc2cc(-c3cccnc3)cc(-c3cccnc3)n2n1 [Example 126, 1-(5,7-Di-pyridin-3-yl-[2,4]triazolo[1,5-a]pyridin-2-yl)-3-ethyl-urea] |  |  | 16.0 µg/mL (≈ 44.5 µM)
CCNC(=O)Nc1nc2cc(-c3cccnc3)cc(-c3ccccn3)n2n1 [Example 127, 1-Ethyl-3-(5-pyridin-2-yl-7-pyridin-3-yl-[1,2,4]triazolo[1,5-a]pyridin-2-yl)-urea] | 32 µg/mL (≈ 89 µM) |  | 
CCNC(=O)Nc1nc2cc(-c3cccnc3)cc(-c3ncccn3)n2n1 [Example 128, 1-Ethyl-3-(7-pyridin-3-yl-5-pyrimidin-2-yl-[1,2,4]triazolo[1,5-a]pyridin-2-yl)-urea] | > 64 µg/mL |  | 

Molecule | MIC [1, 2] | melting point | MIC [1]
CCNC(=O)Nc1nc2cc(-c3cccnc3)cc(-c3cnc(C)o3)n2n1 [Example 129, N-Ethyl-N′-[5-(2-methyl-1,3-oxazol-5-yl)-7-pyridin-3-yl[1,2,4]triazolo[1,5-a]pyridin-2-yl]urea] | 1 µg/mL (≈ 2.75 µM) |  | 
CCNC(=O)Nc1nc2cc(-c3cccnc3)cc(N3CCN(C)CC3)n2n1 [Example 131, 1-Ethyl-3-[5-(4-methyl-piperazin-1-yl)-7-pyridin-3-yl-[1,2,4]triazolo[1,5-a]pyridin-2-yl]-urea] | 32 µg/mL (≈ 84.1 µM) |  | 
CCNC(=O)Nc1nc2cc(-c3cccnc3)cc(-c3cnc(C)s3)n2n1 [Example 132, 1-Ethyl-3-[5-(2-methyl-thiazol-5-yl)-7-pyridin-3-yl-[1,2,4]triazolo[1,5-a]pyridin-2-yl]-urea] | 2 µg/mL (≈ 5.27 µM) |  | 
CCNC(=O)Nc1nc2cc(-c3cccnc3)cc(-c3cnc(C)n3C)n2n1 [Example 135, N-[5-(1,2-Dimethyl-1H-imidazol-5-yl)-7-pyridin-3-yl[1,2,4]triazolo[1,5-a]pyridin-2-yl]-N′-ethylurea] | 8 µg/mL (≈ 21.3 µM) |  | 
CCNC(=O)Nc1nc2cc(-c3cccnc3)cc(-c3cncn3C)n2n1 [Example 136, N-ethyl-N′-[5-(1-methyl-1H-imidazol-5-yl]-7-pyridin-3-yl[1,2,4]triazolo[1,5-a]pyridin-2-yl]urea] | 4 µg/mL (≈ 11 µM) |  | 
CCNC(=O)Nc1nc2cc(-c3cccnc3)cc(N(C)C3CCCCC3)n2n1 [Example 137, N-[5-[Cyclohexyl(methyl)amino]-7-pyridin-3-yl[1,2,4]triazolo[1,5-a]pyridin-2-yl]-N′-ethylurea] | 32 µg/mL (≈ 81.3 µM) |  | 
CCNC(=O)Nc1nc2cc(-c3cccnc3)cc(NC3CCCCC3)n2n1 [Example 138, 1-(5-Cyclohexylamino-7-pyridin-3-yl-[1,2,4]triazolo[1,5-a]pyridin-2-yl)-3-ethyl-urea] | 0.5 µg/mL (≈ 1.32 µM) |  | 
CCNC(=O)Nc1nc2cc(-c3cccnc3)cc(-c3cnc(CC)o3)n2n1 [Example 139, N-Ethyl-N′-[5-(2-ethyl-1,3-oxazol-5-yl)-7-pyridin-3-yl[1,2,4]triazolo[1,5-a]pyridin-2-yl]urea] | 1 µg/mL (≈ 2.65 µM) |  | 
CCNC(=O)Nc1nc2cc(-c3cccnc3)cc(-c3cnc(C(C)C)s3)n2n1 [Example 140, 1-Ethyl-3-[5-(2-i-propyl-thiazol-5-yl)-7-pyridin-3-yl-[1,2,4]triazolo[1,5-a]pyridin-2-yl]-urea] | 64 µg/mL (≈ 157 µM) |  | 
CCNC(=O)Nc1nc2cc(-c3cccnc3)cc(-c3ccc(OC)nc3)n2n1 [Example 142, N-Ethyl-N′-[5-(6-methoxypyridin-3-yl)-7-pyridin-3-yl[1,2,4]triazolo[1,5-a]pyridin-2-yl]urea] | 16 µg/mL (≈ 41.1 µM) |  | 
CCNC(=O)Nc1nc2cc(-c3cccnc3)cc(OCCN3CCCCC3)n2n1 [Example 144, 1-Ethyl-3-[5-(2-piperidin-1-yl-ethoxy)-7-pyridin-3-yl-[1,2,4]triazolo[1,5-a]pyridin-2-yl]-urea] | 32 µg/mL (≈ 78.1 µM) |  | 
CCNC(=O)Nc1nc2cc(-c3cccnc3)cc(N3CCNCC3)n2n1 [Example 146, 1-Ethyl-3-(5-piperazin-1-yl-7-pyridin-3-yl-[1,2,4]triazolo[1,5-a]pyridin-2-yl)-urea] | 32 µg/mL (≈ 87.3 µM) |  | 
CCNC(=O)c1cc(-c2cccnc2)cc2nc(NS(C)(=O)=O)nn12 [Example 147, 2-N-Methylsulfonylamino-7-pyridin-3-yl-[1,2,4]triazolo[1,5-a]pyridin-5-carboxylic acid ethyl amide] |  |  | 4.00 µg/mL (≈ 11.1 µM)
CCNC(=O)Nc1nc2cc(-c3cccnc3)cc(-c3oc(C)nc3C)n2n1 [Example 148, N-[5-(2,4-Dimethyl-1,3-oxazol-5-yl)-7-pyridin-3-yl[1,2,4]triazolo[1,5-a]pyridin-2-yl]-N′-ethylurea] | 4 µg/mL (≈ 10.6 µM) |  | 
CCNC(=O)Nc1nc2cc(-c3ccc(OC)nc3)cc(-c3cnc(C)o3)n2n1 [Example 149, 1-Ethyl-3-[7-(6-methoxy-pyridin-3-yl)-5-(2-methyl-oxazol-5-yl)-[1,2,4]triazolo[1,5-a]pyridin-2-yl]-urea] | 16 µg/mL (≈ 40.7 µM) |  | 
CCNC(=O)Nc1nc2cc(-c3cccnc3)cc(N(C)C3CCN(C)C3)n2n1 (stereo not shown) [Example 150, 1-Ethyl-3-(5-[methyl-(1-methyl-pyrrolidin-3-yl)-amino]-7-pyridin-3-yl-[1,2,4]triazolo[1,5-a]pyridin-2-yl)-urea] | 32 µg/mL (≈ 81.1 µM) |  | 
CCNC(=O)c1cc(-c2cccnc2)cc2nc(NS(=O)(=O)CC)nn12 [Example 151, 2-N-ethylsulfonylamino-7-pyridin-3-yl-[1,2,4]triazolo[1,5-a]pyridin-5-carboxylic acid ethyl amide] |  |  | 32.0 µg/mL (≈ 85.5 µM)
CCNC(=O)Nc1nc2cc(-c3cccnc3)cc(NC3CCN(C)CC3)n2n1 [Example 152, 1-Ethyl-3-[5-(1-methyl-piperidin-4-ylamino)-7-pyridin-3-yl[1,2,4]triazolo[1,5-a]pyridin-2-yl]-urea] | 8 µg/mL (≈ 20.3 µM) |  | 
N-Methyl-N′-[5-(3-methylpyridin-2-yl)-7-pyridin-3-yl[1,2,4]triazolo[1,5-a]pyridin-2-yl]urea [Example 145] |  |  | 16.0 µg/mL
